Biological target: T1, hPAD4 enzyme (Homo sapiens, UniProt Q9UM07)
Assay: RFMS Assay 1 (rapid-fire mass spectrum PAD4 inhibition assay, BAEE substrate)
Assay type: biochemical
Details: 5 nM hPAD4 enzyme, 250 μM BAEE, 30 mins compound and enzyme preincubation at 37° C., 90 min enzyme/substrate reaction
Protocol: Compounds were solubilized in 100% DMSO to achieve a 10 mM compound concentration. Compound stock solutions were stored at RT. A series of dilutions were prepared in DMSO and mixed 8 times with 20 μL mixing volume. Final top concentration of compound in the assay is 50 μM. Final assay conditions were as follows: • Reaction volume: 26 μl • Assay buffer: 25 mM hepes, pH 7.5, 5 mM NaCl, 1 mM DTT, 0.2 mg/ml BSA, 0.01% CHAPS, 50 μM Calcium, and 5 μM TPEN • Final concentrations: 5 nM hPAD4 enzyme, 250 μM BAEE, and 0.5% DMSO • Total incubation time: 30 mins compound and enzyme preincubation at 37° C., 90 min enzyme/substrate reaction, 30 min reaction with phenyl glyoxal at 37° C. • Stop solution: 40 μl 5% TCA in ACN
0.13 μL of compound solution was added to 13 μL of 10 nM PAD4 in assay buffer. After 30 min 13 μl of 500 μM of BAEE was added in 25 mM hepes, pH 7.5, 5 mM NaCl, 1 mM DTT, 0.2 mg/ml BSA, 0.01% CHAPS, 50 µM Calcium, […] was added and the reaction incubated for 90 min at 37° C. The enzymatic reaction was quenched by addition of 15 μl of 6.1N TCA, 100% Final Concentration is 20%, 35 μl of 8.5 mM phenyl glyoxal (final concentration 4 mM) is then added and the reaction is incubated for 30 min at 37° C.
After 30 minutes the plates are spun down to remove all precipitate. The enzyme reaction was quenched with an equal volume of methanol containing internal standard (modified citrulline). Samples were loaded onto the Rapid Fire RF300 system (Agilent) wherein they were first sipped for 1000 ms and then directly loaded to a C18 separations cartridge using a mixture of acetonitrile containing 0.01% formic acid for 3000 ms desalting. The flow rate of the mobile phase was 1.5 ml/min. Once the samples were eluted from the cartridge, a mobile phase of acetonitrile containing 0.01% formic acid was used to move the samples into the mass spectrometer for 4000 ms at a flow rate of 1.25 ml/min/Sciex AP15500 triple quadrupole mass spectrometer (Applied Biosystems) equipped with ESI was used to analyze the peptidyl citrulline and internal standard ions.
MRM transition of product and internal standard were monitored at m/z 424.5 to 350.4 and m/z 293 to 247 respectively. The dwell time for each transition was set at 200 ms, and the ESI voltage was used at 5500 with a source temperature of 400° C. Extracted ion peaks for each transition were integrated using the Rapid Fire Integrator software. Peak area of analyte was normalized with internal standard.).

T1 sequence (Q9UM07 whole entry): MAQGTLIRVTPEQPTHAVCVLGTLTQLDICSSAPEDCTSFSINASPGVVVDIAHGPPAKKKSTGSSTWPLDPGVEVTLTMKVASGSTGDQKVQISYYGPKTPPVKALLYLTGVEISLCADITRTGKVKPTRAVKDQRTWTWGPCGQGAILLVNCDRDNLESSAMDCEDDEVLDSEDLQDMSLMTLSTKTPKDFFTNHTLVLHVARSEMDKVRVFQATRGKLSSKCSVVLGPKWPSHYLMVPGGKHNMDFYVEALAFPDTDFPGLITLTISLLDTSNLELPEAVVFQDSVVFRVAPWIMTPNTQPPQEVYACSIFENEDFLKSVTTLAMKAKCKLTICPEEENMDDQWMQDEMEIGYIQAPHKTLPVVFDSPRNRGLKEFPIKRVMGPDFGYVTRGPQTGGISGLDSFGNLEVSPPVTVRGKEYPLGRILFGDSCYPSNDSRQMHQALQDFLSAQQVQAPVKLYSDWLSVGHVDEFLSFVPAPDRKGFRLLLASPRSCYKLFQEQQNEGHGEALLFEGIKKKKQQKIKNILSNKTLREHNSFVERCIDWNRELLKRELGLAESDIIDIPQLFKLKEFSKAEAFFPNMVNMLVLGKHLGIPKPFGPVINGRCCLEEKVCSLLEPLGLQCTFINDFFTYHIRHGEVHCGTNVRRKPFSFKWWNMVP

Compound | IC50 [nM]
Cn1c(-c2cc3cccc(OCCc4ccncc4)c3n2CC2CC2)nc2cc3c(nc21)CCN(C[C@H](N)CF)C3=O [Example 57, (S)-7-(2-amino-3-fluoropropyl)-2-(1-(cyclopropylmethyl)-7-(2-(pyridin-4-yl)ethoxy)-1H-indol-2-yl)-3-methyl-3,5,6,7-tetrahydro-8H-imidazo[4,5-b][1,6]naphthyridin-8-one] | 11 to 100
COCCn1c(-c2nc3cc4c(nc3n2C)CCN(C[C@H](N)CF)C4=O)cc2cccc(OC(F)Cn3ccnc3)c21 (single isomer, unassigned) [Example 77a] | 11 to 100
COc1cccc2cc(-c3nc4cc5c(nc4n3C)CCN(C[C@H](N)CF)C5=O)n(CCOC(F)F)c12 [Example 6, (S)-7-(2-amino-3-fluoropropyl)-2-(1-(2-(difluoromethoxy)ethyl)-7-methoxy-1H-indol-2-yl)-3-methyl-3,5,6,7-tetrahydro-8H-imidazo[4,5-b][1,6]naphthyridin-8-one] | 101 to 500
Cn1c(-c2cc3cccc(OCCc4cn[nH]c4)c3n2CC2CC2)nc2cc3c(nc21)CCN(C[C@H](N)CF)C3=O [Example 50, (S)-2-(7-(2-(1H-pyrazol-4-yl)ethoxy)-1-(cyclopropylmethyl)-1H-indol-2-yl)-7-(2-amino-3-fluoropropyl)-3-methyl-3,5,6,7-tetrahydro-8H-imidazo[4,5-b][1,6]naphthyridin-8-one] | ≤ 10
C[C@@H](Cn1cncc1F)Oc1cccc2cc(-c3nc4cc5c(nc4n3C)CCN(C[C@H](N)CF)C5=O)n(CC3CC3)c12 [Example 68, 7-((S)-2-amino-3-fluoropropyl)-2-(1-(cyclopropylmethyl)-7-(((S)-1-(5-fluoro-1H-imidazol-1-yl)propan-2-yl)oxy)-1H-indol-2-yl)-3-methyl-3,5,6,7-tetrahydro-8H-imidazo[4,5-b][1,6]naphthyridin-8-one] | 101 to 500
CC(C(F)Oc1cccc2cc(-c3nc4cc5c(nc4n3C)CCN(C[C@H](N)CF)C5=O)n(CC3CC3)c12)n1ccnc1 (single isomer, unassigned) [Example 78d] | 11 to 100
C[C@H](COc1cccc2cc(-c3nc4cc5c(nc4n3C)CCN(C[C@H](N)CF)C5=O)n(CC3CC3)c12)n1cnc(C#N)c1 [Example 91, 1-((R)-1-((2-(7-((S)-2-amino-3-fluoropropyl)-3-methyl-8-oxo-5,6,7,8-tetrahydro-3H-imidazo[4,5-b][1,6]naphthyridin-2-yl)-1-(cyclopropylmethyl)-1H-indol-7-yl)oxy)propan-2-yl)-1H-imidazole-4-carbonitrile] | 101 to 500
Cn1c(-c2cc3cccc(OCCn4ccnc4C#N)c3n2CC2CC2)nc2cc3c(nc21)CCN(C[C@H](N)CF)C3=O [Example 89, (S)-1-(2-((2-(7-(2-amino-3-fluoropropyl)-3-methyl-8-oxo-5,6,7,8-tetrahydro-3H-imidazo[4,5-b][1,6]naphthyridin-2-yl)-1-(cyclopropylmethyl)-1H-indol-7-yl)oxy)ethyl)-1H-imidazole-2-carbonitrile] | 101 to 500
CC(C(F)Oc1cccc2cc(-c3nc4cc5c(nc4n3C)CCN(C[C@H](N)CF)C5=O)n(CC3CC3)c12)n1ccnc1 (single isomer, unassigned) [Example 78a] | 11 to 100
CC(COc1cccc2cc(-c3nc4cc5c(nc4n3C)CCN(C[C@H](N)CF)C5=O)n(CC3CC3)c12)c1cccnc1 (single isomer, unassigned) [Example 45a] | ≤ 10

Biological target: T1, hPAD4 enzyme
Assay: RFMS Assay 2 (rapid-fire mass spectrum PAD4 inhibition assay, peptide substrate)
Assay type: biochemical
Details: 35 nM recombinant human PAD4, substrate TSTGGRQGSHH, room temperature for 30 minutes; read-out: human PAD4 (hPAD4) IC50, RFMS Assay 2
Protocol: Stock compounds were dissolved and stored in 100% DMSO. Compound solutions were prepared via serial dilution at 3-fold intervals in DMSO with top compound concentration at […] in each assay. 0.25 μl of compound solution was transferred from the compound plate to the assay plate by using an acoustic dispenser. Final assay conditions: • Total reaction volume: 25 μl • Assay buffer: […] pH 7.4, 200 mM NaCl, 2 mM CaCl2, 5 mM DTT • 35 nM recombinant human PAD4 • 500 µM TSTGGRQGSHH (SEQ ID NO: 1) • 1.2% DMSO • Stop solution: 10% formic acid
Reaction mixtures were incubated at room temperature for 30 minutes. 10 μl each of the reaction mixtures was then mixed with 40 μl of 10% formic acid in a microtiter plate. The plate was frozen at −80° C. before shipping out on dry ice for RapidFire mass spectroscopy analysis.
Thawed samples were loaded onto the Rapid Fire 300 system (Agilent) wherein they were first sipped for 250 ms and then loaded onto a Agilent “C” (C18) cartridge using a mobile phase of water containing 0.09% formic acid/0.01% trifluoroacetic acid for 3000 ms desalting flowing at a rate of 1.5 ml/min. Once the samples were loaded and washed, a mobile phase of acetonitrile containing 0.09% formic acid/0.01% trifluoroacetic acid was used to elute the samples directly onto a Sciex API4000 triple quadrupole mass spectrometer for 3000 ms at a flow rate of 1.25 ml/min.
MRM transitions for substrate and product were monitored in positive ESI mode at m/z=562.3/969.7 and m/z=562.8/541.3 respectively. The dwell time for each transition was set at 100 ms, and the ESI voltage was used at 5500 with a source temperature of 650° C. Extracted ion peaks for each transition were integrated using the Rapid Fire Integrator software.

Compound | IC50 [nM]
Cn1c(-c2cc3cccc(OCC4CC(=O)NC4(C)C)c3n2CC2CC2)nc2cc3c(nc21)CCN(C[C@H](N)CF)C3=O (stereo partly drawn) [Example 35, 7-((S)-2-amino-3-fluoropropyl)-2-(1-(cyclopropylmethyl)-7-((2,2-dimethyl-5-oxopyrrolidin-3-yl)methoxy)-1H-indol-2-yl)-3-methyl-3,5,6,7-tetrahydro-8H-imidazo[4,5-b][1,6]naphthyridin-8-one] | 501 to 1000
COc1cccc2cc(-c3nc4cc5c(nc4n3C)CCN(C[C@H](N)CF)C5=O)n(Cc3nc(C)co3)c12 [Example 13, (S)-7-(2-amino-3-fluoropropyl)-2-(7-methoxy-1-((4-methyloxazol-2-yl)methyl)-1H-indol-2-yl)-3-methyl-3,5,6,7-tetrahydro-8H-imidazo[4,5-b][1,6]naphthyridin-8-one] | 501 to 1000
Cn1c(-c2cc3cccc(OC[C@H]4CNC(=O)C4)c3n2CC2CC2)nc2cc3c(nc21)CCN(C[C@H](N)CF)C3=O [Example 60, 7-((S)-2-amino-3-fluoropropyl)-2-(1-(cyclopropylmethyl)-7-(((R)-5-oxopyrrolidin-3-yl)methoxy)-1H-indol-2-yl)-3-methyl-3,5,6,7-tetrahydro-8H-imidazo[4,5-b][1,6]naphthyridin-8-one] | 101 to 500
Cn1c(-c2cc3cccc(OC[C@@H]4CCC(=O)NC4)c3n2CC2CC2)nc2cc3c(nc21)CCN(C[C@H](N)CF)C3=O [Example 37, 7-((S)-2-amino-3-fluoropropyl)-2-(1-(cyclopropylmethyl)-7-(((R)-6-oxopiperidin-3-yl)methoxy)-1H-indol-2-yl)-3-methyl-3,5,6,7-tetrahydro-8H-imidazo[4,5-b][1,6]naphthyridin-8-one] | 501 to 1000
Cc1cccc2cc(-c3nc4cc5c(nc4n3C)CCN(C[C@H](N)CF)C5=O)n(Cc3ccno3)c12 [Example 17, (S)-7-(2-amino-3-fluoropropyl)-2-(1-(isoxazol-5-ylmethyl)-7-methyl-1H-indol-2-yl)-3-methyl-3,5,6,7-tetrahydro-8H-imidazo[4,5-b][1,6]naphthyridin-8-one] | 501 to 1000
Cn1c(-c2cc3cccc(OC[C@H]4CCC(=O)NC4)c3n2CC2CC2)nc2cc3c(nc21)CCN(C[C@H](N)CF)C3=O [Example 36, 7-((S)-2-amino-3-fluoropropyl)-2-(1-(cyclopropylmethyl)-7-(((S)-6-oxopiperidin-3-yl)methoxy)-1H-indol-2-yl)-3-methyl-3,5,6,7-tetrahydro-8H-imidazo[4,5-b][1,6]naphthyridin-8-one] | > 1000
COc1cccc2cc(-c3nc4cc5c(nc4n3C)CCN(C[C@H](N)CF)C5=O)n(Cc3oncc3C)c12 [Example 9, (S)-7-(2-amino-3-fluoropropyl)-2-(7-methoxy-1-((4-methylisoxazol-5-yl)methyl)-1H-indol-2-yl)-3-methyl-3,5,6,7-tetrahydro-8H-imidazo[4,5-b][1,6]naphthyridin-8-one] | 101 to 500
CC(Cc1cnco1)Oc1cc(F)cc2cc(-c3nc4cc5c(nc4n3C)CCN(C[C@H](N)CF)C5=O)n(CC3CC3)c12 (single isomer, unassigned) [Example 64] | 101 to 500
COc1ccc2cc(-c3nc4cc5c(nc4n3C)CCN(C[C@H](N)CF)C5=O)n(CC3CC3)c2c1 [Example 18, (S)-7-(2-amino-3-fluoropropyl)-2-(1-(cyclopropylmethyl)-6-methoxy-1H-indol-2-yl)-3-methyl-3,5,6,7-tetrahydro-8H-imidazo[4,5-b][1,6]naphthyridin-8-one] | 501 to 1000
